Source: patent US12139472B2, “Inhibitors of advanced glycation end products” (priority 2019, dated 2024)

Molecular target: T1, CYP2C8 (Homo sapiens, UniProt P10632)
T1 construct: Two studies were conducted in human liver microsomes (HLM); tissue Eurofins G232 panel; host or cells: human liver microsomes
T1 sequence (P10632 1-490): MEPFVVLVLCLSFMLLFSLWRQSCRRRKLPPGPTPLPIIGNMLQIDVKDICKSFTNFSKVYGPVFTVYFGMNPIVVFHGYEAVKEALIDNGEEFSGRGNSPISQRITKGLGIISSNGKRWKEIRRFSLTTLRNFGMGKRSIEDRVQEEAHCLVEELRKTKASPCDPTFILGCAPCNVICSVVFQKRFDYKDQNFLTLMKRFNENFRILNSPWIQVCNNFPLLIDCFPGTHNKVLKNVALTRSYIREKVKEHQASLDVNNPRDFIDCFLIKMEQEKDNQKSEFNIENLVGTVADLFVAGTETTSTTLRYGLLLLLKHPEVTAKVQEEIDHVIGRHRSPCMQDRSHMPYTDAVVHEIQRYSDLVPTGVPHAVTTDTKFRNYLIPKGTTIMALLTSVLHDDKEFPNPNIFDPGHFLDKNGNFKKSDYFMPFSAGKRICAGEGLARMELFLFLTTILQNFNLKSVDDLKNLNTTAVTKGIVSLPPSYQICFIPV
Format: in vitro ADME
Conditions: microsomes
Experimental: Compound 5 (PTG-630 free base) and 7 additional compounds for CYP3A P450 inhibition.
Two studies were conducted in human liver microsomes (HLM). Lead candidate PTG-630 was tested using the Eurofins G232 panel (Drug Metab Dispos. 2001 January; 29(1):23-9), where inhibition was measured against seven CYP enzymes; CYP3A4 was tested using two different substrates, midazolam and testosterone. In a second study, inhibition of CYP3A4 (midazolam substrate only) was compared for 8 compounds of interest. The test protocol involved one-point measurements in duplicate, where inhibition was measured at a fixed 10 μM concentration of candidate inhibitors. In all cases, the substrate for each CYP enzyme was at a concentration equal to its specific Km value that was independently obtained from an 8-point dose-response study. Based on the observed value for percent inhibition for each test compound, we calculated of an IC50 assuming a competitive mode of inhibition. If percent inhibition for an inhibitor at a concentration of [I] is denoted by P, then: IC50=[I]*(100−P)/P In the single-point assay, [I] is 10 μM. If measured inhibition is 10%, then IC50=10*(100-10)/10=90 μM. […] As discussed in Lin et al. (J Pharm Sci. 2007 September; 96(9):2485-93; doi: 10.1002/jps.20884), CYP inhibition is broadly interpreted as being “potent” if IC50<1 μM, “moderate” if 1 μM<IC50<10 μM, and “weak” if IC50>10 μM.

**Q.** How did the IC50 turn out when `Cc1ncc(CN2CCOCC2)c(-c2ncc[nH]2)c1O` [PTG-630] was run?
**A.** 37 µM

**Q.** What about the P % inhib of the same compound?
**A.** 21.3%
